Publication PMC3038857, “Using Nuclear Receptor Activity to Stratify Hepatocarcinogens” (PLoS ONE, 2011)
Read-outs that look alike come from different tables or passages of the source.

Assays:
CYP3A4 = assay: CLZD_CYP3A4: Change in expression of CYP3A4 (primary human hepatocytes); format: cell-based; conditions: 24 hr
In short: (§1)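 Chemicals are tested in human hepatocyte primary cultures over 0.004-40 µM (5 concentrations) for 6, 24 or 48 hr, and concentration- and time-dependent transcript changes are read by quantitative nuclease protection assay.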

Mouse Liver [1] = conditions: ref ToxRefDB, cited from earlier work
PXR (NR1I2) [2] = target: T1, PXR (NR1I2) (Homo sapiens, UniProt O75469); assay: ATG_PXRE_CIS: Factorial reporter gene assay (HepG2); format: cell-based; parameters: endogenous in cells; host or cells: HepG2; conditions: HepG2
T1 sequence (O75469 1-434): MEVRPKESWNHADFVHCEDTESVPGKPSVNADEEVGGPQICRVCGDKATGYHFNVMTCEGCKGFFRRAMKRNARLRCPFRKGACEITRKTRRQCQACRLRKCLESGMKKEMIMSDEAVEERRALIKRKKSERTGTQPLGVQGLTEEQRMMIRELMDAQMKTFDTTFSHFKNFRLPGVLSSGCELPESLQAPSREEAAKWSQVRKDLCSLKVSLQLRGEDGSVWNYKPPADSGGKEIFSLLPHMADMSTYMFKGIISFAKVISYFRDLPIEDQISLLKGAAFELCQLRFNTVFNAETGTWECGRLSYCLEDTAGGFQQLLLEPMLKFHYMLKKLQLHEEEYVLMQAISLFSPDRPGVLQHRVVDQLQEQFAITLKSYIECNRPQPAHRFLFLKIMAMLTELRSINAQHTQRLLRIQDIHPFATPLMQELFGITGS
In short: (§2)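 Each chemical received seven doses, the first at its MTC, then successive three-fold dilutions. Host cells: HepG2 carrying either cis (PXRE, 48 sites) or trans one-hybrid (ERRg, FXR, PPARg; 25 units) reporter libraries.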

PXR (NR1I2) [3] = target: T1, PXR (NR1I2); assay: ATG_PXR_TRANS: Factorial reporter gene assay (HepG2); format: cell-based; parameters: endogenous in cells; host or cells: HepG2; conditions: HepG2
In short: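 Seven concentrations per chemical, three-fold dilutions down from the MTC, were tested in HepG2 hepatoma cells. Those cells carried a multiple reporter transcription unit library, read either as cis transcription-factor-site reporters or as a trans mammalian one-hybrid panel for nuclear receptors.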

CYP2B6 = assay: CLZD_CYP2B6: Change in expression of CYP2B6 (primary human hepatocytes); format: cell-based; conditions: 24 hr
In short: as §1

CYP1A2 = assay: CLZD_CYP1A2: Change in expression of CYP1A2 (primary human hepatocytes); format: cell-based; conditions: 24 hr
In short: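 Cultured primary human hepatocytes treated with chemicals for 6, 24 or 48 hr across five concentrations spanning 0.004-40 µM, then transcript level measured by quantitative nuclease protection in a multiplexed format.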

PXR Human (NR1I2) = target: T2, PXR Human (NR1I2) (Homo sapiens, UniProt O75469); assay: NCGC_PXR_Agonist_human: GAL4 BLAM Reporter gene assay: PXR Human; format: cell-based; conditions: agonist mode
T2 sequence (O75469 146-434 limits assumed): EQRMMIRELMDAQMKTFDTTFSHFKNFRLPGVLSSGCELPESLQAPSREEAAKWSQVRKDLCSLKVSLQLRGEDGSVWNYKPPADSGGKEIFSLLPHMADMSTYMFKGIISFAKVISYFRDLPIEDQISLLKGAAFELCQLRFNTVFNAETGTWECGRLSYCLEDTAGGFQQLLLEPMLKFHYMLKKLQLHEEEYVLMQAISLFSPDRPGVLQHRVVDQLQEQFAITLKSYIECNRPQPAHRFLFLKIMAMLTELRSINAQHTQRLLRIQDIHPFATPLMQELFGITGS
Experimental: These assays measure binding constants and enzyme inhibition values for nuclear receptors. The targets include [drawing 67] , [drawing 68] , [drawing 69] , [drawing 70] , [drawing 71] , [drawing 72] , [drawing 73] , [drawing 74] , [drawing 75] and [drawing 76] . Each of the nuclear receptor targets was measured in agonist mode. Assays were run at the NIH Chemical Genomics Center (Rockville, MD).
Cell-based HTS Assays: These assays measuring binding constants and enzyme inhibition values for nuclear receptors. The targets include AR, ER, FXR, LXR, PPARα, PPARδ, PPARγ, RXRα, RXRβ and PXR. Each of the nuclear receptor targets was measured in both agonist and antagonist mode, but the antagonist data is still undergoing analysis due to possible interference between cytotoxicity and assay activity, so antagonist mode data were not used in the present analysis. Assays were run at the NIH Chemical Genomics Center (Rockville, MD) as part of the Tox21 collaboration. […] The R^2 was required to be ≥0.5. Values where only the highest concentration exceeded 50% activity were excluded to eliminate weak or false positives. Detailed description of the methods, data and analysis methods for this dataset will be presented in a separate publication.

CYP1A1 = assay: CLZD_CYP1A1: Change in expression of CYP1A1 (primary human hepatocytes); format: cell-based; conditions: 24 hr
Experimental: This is a collection of multiplexed gene expression assays focused on Phase I and II xenobiotic metabolizing enzymes and transporters. Human primary cell cultures were treated with chemicals at 5 concentrations (0.004-40 [drawing 42] M) for 6, 24 and 48 hr. Concentration- and time-response profiles of chemicals were measured by the expression of key nuclear receptor target genes, activities of CYP1A enzymes (EROD), and cell morphology. Fourteen gene targets were monitored by quantitative nuclease protection assay including: six representative cytochrome P-450 genes, four hepatic transporters, three Phase II conjugating enzymes, and one endogenous metabolism gene involved in cholesterol synthesis. The target genes associated with nuclear receptor pathways are as follows: [drawing 43] and [drawing 44] with [drawing 45]; [drawing 46] , [drawing 47] , [drawing 48] , [drawing 49] , [drawing 50] and [drawing 51] with [drawing 52]; [drawing 53] , [drawing 54] , [drawing 55] and [drawing 56] with [drawing 57]; [drawing 58] with [drawing 59]; and [drawing 60] with [drawing 61] . Assays were run in primary human hepatocyte cultures by CellzDirect Invitrogen Inc. (Durham, NC), in collaboration with EPA.
Multiplexed Gene Expression in Human Primary Hepatocytes: This is a collection of multiplexed gene expression assays focused on Phase I and II metabolic enzymes and transporters. […] Fourteen gene targets were monitored by quantitative nuclease protection assay: six representative cytochrome P450 genes, four hepatic transporters, three Phase II conjugating enzymes, and one endogenous metabolism gene involved in cholesterol synthesis. Cells were exposed at 5 concentrations (0.004-40 µM) for 6, 24 or 48 hr. Gene targets are sentinels for five nuclear receptor signaling pathways: AhR, CAR, PXR, FXR, and PPARα. All gene are associated with nuclear receptor pathways: CYP1A1 and CYP1A2 with AHR; ABCB1, ABCG2, CYP2B6, CYP2C9, CYP2C19 and UGT1A1 with CAR; CYP3A4, GSTA2, SLCO1B1 and SULT2A1 with PXR; HMGCS2 with PPARA; and ABCB11 with FXR. […] Detailed description of the methods, data and analysis methods for this dataset will be presented in a separate publication.

Mouse Liver [4] = conditions: ref ToxRefDB, cited from earlier work; remark: listed apart in the source
[5] = target: T3, ESR1 (estrogen receptor 1) (Homo sapiens, UniProt P03372); assay: ATG_ERa_TRANS: Factorial reporter gene assay (HepG2); format: cell-based; conditions: HepG2
T3 construct: expressed in transfected cells; host or cells: HepG2
Experimental: (§3) A multiple reporter transcription unit (MRTU) library consisting of 48 transcription factor binding sites was transfected into the HepG2 human liver hepatoma cell line. In addition to the cis-acting reporter genes (CIS), a modification of the approach was used to generate a trans-system (TRANS) with a mammalian one-hybrid assay consisting of an additional 25 MRTU library reporting the activity of nuclear receptor super-family members. […] These assays were performed by Attagene Inc. (Morrisville NC) under contract to EPA.
(§4) In addition to the cis-acting reporter genes (CIS), a modification of the approach was used to generate a trans-system (TRANS) with a mammalian one-hybrid assay consisting of an additional 25 MRTU library reporting the activity of nuclear receptor super-family members. […] Chemicals were then tested in the CIS and TRANS assays at seven concentrations starting at the MTC and followed by three-fold serial dilutions. These assays were performed by Attagene Inc. (Morrisville NC) under contract to EPA. Detailed description of the methods, data and analysis methods for this dataset will be presented in a separate publication.

Rat Liver [6] = conditions: ref ToxRefDB, cited from earlier work
Rat Liver [7] = conditions: ref ToxRefDB, cited from earlier work; remark: listed apart in the source
Rat Liver [8] = conditions: ref ToxRefDB, cited from earlier work; remark: listed apart in the source
PXR (NR1I2) [9] = target: T1, PXR (NR1I2); assay: NVS_NR_hPXR: Human PXR Fluormone PXR (SXR) green (cell-free HTS); format: binding
In short: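 Cell-free biochemical binding assays; chemicals first screened at a single concentration of 25 […] M in duplicate wells. Signals normalised to same-plate solvent controls as percent of neutral control, and AC50 values came from Hill-equation fits of concentration-response curves.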

Mouse Liver [10] = conditions: ref ToxRefDB, cited from earlier work; remark: listed apart in the source
[11] = target: T4, AHR (aryl hydrocarbon receptor) (Homo sapiens, UniProt P35869); assay: ATG_Ahr_CIS: Factorial reporter gene assay (multiplexed transcription reporter, HepG2); format: cell-based; conditions: HepG2
T4 construct: endogenous in cells; host or cells: HepG2
T4 sequence (P35869 11-848): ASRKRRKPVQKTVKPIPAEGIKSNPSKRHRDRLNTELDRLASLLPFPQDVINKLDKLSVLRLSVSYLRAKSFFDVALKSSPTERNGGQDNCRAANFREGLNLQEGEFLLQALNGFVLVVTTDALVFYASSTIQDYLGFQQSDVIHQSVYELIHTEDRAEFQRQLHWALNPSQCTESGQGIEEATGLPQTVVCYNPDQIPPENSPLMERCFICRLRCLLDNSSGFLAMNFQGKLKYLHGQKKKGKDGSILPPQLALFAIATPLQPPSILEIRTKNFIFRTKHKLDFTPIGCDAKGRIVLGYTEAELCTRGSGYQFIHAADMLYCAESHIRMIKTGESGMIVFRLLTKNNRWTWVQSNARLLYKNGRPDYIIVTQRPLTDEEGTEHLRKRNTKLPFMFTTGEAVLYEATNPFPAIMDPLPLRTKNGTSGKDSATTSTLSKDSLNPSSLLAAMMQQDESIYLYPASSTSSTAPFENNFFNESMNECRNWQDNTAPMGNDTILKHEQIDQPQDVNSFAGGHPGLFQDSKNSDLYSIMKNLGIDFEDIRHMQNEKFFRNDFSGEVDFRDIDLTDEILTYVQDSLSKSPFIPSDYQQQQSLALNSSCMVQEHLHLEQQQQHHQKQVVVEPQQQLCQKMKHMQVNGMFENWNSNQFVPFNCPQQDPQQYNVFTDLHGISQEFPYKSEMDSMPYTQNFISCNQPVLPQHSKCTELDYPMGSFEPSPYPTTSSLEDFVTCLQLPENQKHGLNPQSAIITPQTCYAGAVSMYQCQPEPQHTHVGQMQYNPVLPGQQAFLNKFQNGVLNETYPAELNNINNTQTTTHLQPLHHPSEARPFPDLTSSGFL
Experimental: as §3, §4

[12] = target: T5, PPARG (peroxisome proliferator-activated receptor gamma) (Homo sapiens, UniProt P37231); assay: ATG_PPARg_TRANS: Factorial reporter gene assay (HepG2); format: cell-based; conditions: HepG2
T5 construct: expressed in transfected cells; host or cells: HepG2
T5 sequence (P37231 1-505): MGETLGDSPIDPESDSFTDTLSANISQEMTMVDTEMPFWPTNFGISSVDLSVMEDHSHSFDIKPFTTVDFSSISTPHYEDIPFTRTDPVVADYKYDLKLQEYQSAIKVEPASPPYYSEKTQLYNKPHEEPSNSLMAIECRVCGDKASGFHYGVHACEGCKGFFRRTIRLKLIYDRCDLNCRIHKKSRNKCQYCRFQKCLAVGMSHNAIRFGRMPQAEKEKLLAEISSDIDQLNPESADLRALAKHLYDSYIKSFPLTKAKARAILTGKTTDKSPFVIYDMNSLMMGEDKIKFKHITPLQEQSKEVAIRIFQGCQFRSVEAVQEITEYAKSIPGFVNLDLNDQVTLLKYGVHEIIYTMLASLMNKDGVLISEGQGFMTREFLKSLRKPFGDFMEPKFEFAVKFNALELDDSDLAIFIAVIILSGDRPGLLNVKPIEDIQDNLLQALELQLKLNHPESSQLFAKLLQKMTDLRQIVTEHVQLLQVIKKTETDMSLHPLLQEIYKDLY
In short: as §2

T3 sequence (P03372 whole entry): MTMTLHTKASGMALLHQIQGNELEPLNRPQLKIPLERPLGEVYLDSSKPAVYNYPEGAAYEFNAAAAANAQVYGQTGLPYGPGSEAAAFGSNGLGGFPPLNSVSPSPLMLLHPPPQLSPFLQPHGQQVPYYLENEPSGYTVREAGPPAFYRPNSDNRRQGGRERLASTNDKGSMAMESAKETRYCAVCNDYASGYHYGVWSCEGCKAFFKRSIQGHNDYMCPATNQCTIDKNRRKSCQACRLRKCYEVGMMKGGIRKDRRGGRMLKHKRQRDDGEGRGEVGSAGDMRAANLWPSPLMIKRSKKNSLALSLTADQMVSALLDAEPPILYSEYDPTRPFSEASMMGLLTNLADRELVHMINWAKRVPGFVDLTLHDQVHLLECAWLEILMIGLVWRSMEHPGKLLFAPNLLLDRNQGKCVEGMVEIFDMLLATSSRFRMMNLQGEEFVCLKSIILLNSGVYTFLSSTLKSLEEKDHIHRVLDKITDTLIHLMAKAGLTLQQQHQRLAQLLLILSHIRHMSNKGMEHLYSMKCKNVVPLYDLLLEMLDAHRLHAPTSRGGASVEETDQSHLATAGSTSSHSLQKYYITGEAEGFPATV

Structure (SMILES)	CLZD_CYP3A4_24 (CYP3A4)	CHR_Mouse_Liver_1_AnyLesion (Mouse Liver [1]; mouse, chronic study)	ATG_PXRE_CIS (PXR (NR1I2) [2])	ATG_PXR_TRANS (PXR (NR1I2) [3])	CLZD_CYP2B6_24 (CYP2B6)	CLZD_CYP1A2_24 (CYP1A2)	CLZD_CYP1A1_24 (CYP1A1)	CHR_Mouse_Liver_2_PreneoplasticLesion (Mouse Liver [4]; mouse, chronic study)	ATG_ERa_TRANS [5]	NVS_NR_hPXR (PXR (NR1I2) [9])	also measured
CCOc1cc(Oc2ccc(C(F)(F)F)cc2Cl)ccc1[N+](=O)[O-] [r233]	5.072	6	4.432	4.699	5.028	5.409	5.52	6	5.102	–	NCGC_PXR_Agonist_human (PXR Human (NR1I2)): 4.683
CC1(C)C(C=C(Cl)Cl)C1C(=O)OCc1cccc(Oc2ccccc2)c1 (stereo not shown) [r242]	5.668	6	4.959	–	4.991	–	–	6	4.523	4.444	CHR_Rat_Liver_1_AnyLesion (Rat Liver [6]; rat, chronic study): 6; CHR_Rat_Liver_2_PreneoplasticLesion (Rat Liver [7]; rat, chronic study): 0; CHR_Rat_Liver_3_NeoplasticLesion (Rat Liver [8]; rat, chronic study): 0; CHR_Mouse_Liver_3_NeoplasticLesion (Mouse Liver [10]; mouse, chronic study): 6; ATG_Ahr_CIS [11]: 4.125
CCCCC(CC)CN1C(=O)C2C3C=CC(C3)C2C1=O (stereo not shown) [row 212]	4.752	–	5.06	4.745	5.005	5.284	4.883	–	4.328	4.582	CHR_Rat_Liver_1_AnyLesion (Rat Liver [6]; chronic rat study, liver): 6; CHR_Rat_Liver_2_PreneoplasticLesion (Rat Liver [7]; chronic rat study, liver): 6; CHR_Rat_Liver_3_NeoplasticLesion (Rat Liver [8]; chronic rat study, liver): 0; CHR_Mouse_Liver_1_AnyLesion (Mouse Liver [1]; chronic mouse study, liver): 6; ATG_PPARg_TRANS [12]: 4.284; CHR_Mouse_Liver_3_NeoplasticLesion (Mouse Liver [10]; chronic mouse study, liver): 6; CHR_Mouse_Liver_2_PreneoplasticLesion (Mouse Liver [4]; chronic mouse study, liver): 6
